The text below walks through data of US20250177324A1, “A[…], AND PREPARATION METHOD THEREFOR AND USE THEREOF” (SHANGHAI ZHIGEN PHARMACEUTICAL & TECHNOLOGY CO. LTD., priority 2022, published 2025).

Series [1] in a line: Solid-state chemical stability under different storage conditions (liquid chromatography). In kind it is physicochemical. To be noted: 40° C., 75% RH. The protocol:
The HPLC conditions were as follows:
Configuration of test solution: appropriate amount of sample was dissolved and diluted with a diluent (0.03 mol/L phosphate buffer-acetonitrile (80:20)) to make 1 mg/mL solution.
Chromatographic conditions: according to the high performance liquid chromatography (Chinese Pharmacopoeia 2020 version of the four general 0512) test, using octadecyl-bonded silica gel (Agilent Eclipse Plus C18, 4.6 mm*250 mm, 5.0 μm, P/N for 959990-902 or a chromatographic column with equivalent performance) as a filler; 0.03 mol/L phosphate buffer (4.08 g of potassium dihydrogen phosphate was dissolved in 1000 ml of water and shaken well) was used as mobile phase A and acetonitrile as mobile phase B at a flow rate of 1 ml/min, the column temperature was 30° C., the detection wavelength was 220 nm, the injection volume was 10 ul, and the sample plate was controlled to 8° C. and running for 65 min. Gradient elution was performed according to the following table: […]
Configuration of test solution: appropriate amount of the product was dissolved and diluted with a diluent (0.1% phosphoric acid-acetonitrile (80:20)) to make 1 mg/mL solution.
Chromatographic conditions: according to the high performance liquid chromatography (Chinese Pharmacopoeia 2020 version of the four general 0512) test, using octadecyl bonded silica gel (Agilent Eclipse Plus C18, 4.6 mm*250 mm, 5.0 μm, P/N 959990-902 or a chromatographic column with equivalent performance) as a filler; 0.1% phosphate buffer (1 ml of phosphoric acid in 1000 ml of water and shake well) as mobile phase A, acetonitrile as mobile phase B, flow rate of 1 ml/min, column temperature of 30° C., detection wavelength of 220 nm, injection volume of 10 ul, running for 48 minutes. Gradient elution was performed according to the following table: […]

The test system of series [2] is C57 mice. Kind of series: Forced swim test of oral administration in mice (antidepressant activity). In kind it is in vivo. To be noted: Mus musculus, po, reduction of immobility time vs blank group, single gavage 20 mg/kg. As for the experimental part:
To investigate the effects of different compounds on depression-like behavior in C57 mice by single oral administration of 20 mg/kg for 1 h and 24 h followed by forced swimming experiment, respectively.
The experimental animals were 6-week-old C57 mice, male, C57 breed mice purchased from Shanghai Slaughter Laboratory Animal Co. Ltd, weighing 20.45±0.19 g. The animals arrived at the Animal Breeding Center of the Shanghai Institute of Pharmaceutical Sciences, Chinese Academy of Sciences (Animal Production License: SCXK9[Shanghai]2004-0002, Use License: SYXK [Shanghai]2003-0029) before the experiments and were acclimated to the animal facilities for more than 3 days, 6 animals/cage were feed. The feeding environment was room temperature 23±0.2° C. and 12/12 h day/night alternating light and dark. Prior to behavioral testing, animals were moved to the behavioral testing room 2 hours in advance to acclimatize them to the environment and reduce their nervousness.
Preparation of the test material: the test compounds were weighed and dissolved in 0.9% NaCl solution, mixed well, and prepared into 1 mg/ml and 2 mg/ml solution for use, respectively.
24 h prior to drug administration, mice were placed in a cylindrical tank to acclimatize to the water environment for 10 min. On the day of the behavioral test, the animals were administered the drug once, by gavage/intraperitoneal injection at 1 h and 24 h prior to the behavioral test, respectively (as shown in Table 1).
The antidepressant effect of the compounds was evaluated by their ability to cause a reduction in the immobility time of the animals in the forced swim test compared to the blank group.

Series [3] can be described thus: Brain tissue distribution study in rats. In kind it is in vivo. The note with it: SD rats, 10 mg/kg gavage. As for the experimental part:
Healthy male SD rats, randomly grouped with 3 rats in each group, were given the test compounds by gavage.
(§1) Each test compound was dissolved in saline to form a certain concentration solution for administration.
Fasting but not abstaining from water for 12-14 hours on the day before administration, and food was given 4 h after administration.
Brain tissues were collected after the animals were bled, cleaned, and homogenized with 50% ice methanol 1:4 (m/v). The collection time points were 5 min, 10 min, 30 min, and 2 h after the administration of subjects; 30.0 μL of tissue samples were taken (the samples were taken from the refrigerator at −80° C. and vortexed for 30 s after natural dissolution at room temperature) into 1.5 mL centrifugal tubes, and 300.0 μL of the internal standard solution (30 ng/mL buspirone in acetonitrile) was added; the samples were vortexed for 60 s, and centrifuged for 3 min (the centrifugal force was 12,000 rpm). 75 μL of the supernatant was transferred to a 96-well plate containing an equal volume of water, shaken to mix well and then sampled for LC-MS/MS analysis, the sample volume is 10 μL.

The nature of series [4]: In vivo pharmacokinetic experiments in beagle dogs. The note with it: beagle dog. As for the experimental part: Healthy male beagle dogs, randomly grouped with 3 dogs in each group, were given the test compound by gavage or intravenous injection.
as §1
Fasting but not abstaining from water for 12-14 hours on the day before administration, and food was given 4 h after administration; no fasting was done for the intravenous experiments.
Each animal was sampled with 0.6 mL of blood each time through the jugular vein and anticoagulated with EDTAK2. The collection time points were 5 min, 10 min, 15 min, 30 min, 1 h, 2 h, 4 h, 6 h, 8 h, and 24 h after administration of the subject in group PO; group IV: 2 min, 5 min, 15 min, 30 min, 1 h, 2 h, 4 h, 6 h, 24 h after administration of the subject. Blood samples were placed on ice after collection and centrifuged to separate plasma within 30 min (centrifugation conditions: 5000 rpm, 10 min, 4° C.). The samples were stored at −80° C. before analysis.

The subject of series [5] is C57 mice. Kind of series: Forced swim test of oral administration in mice (antidepressant activity). In kind it is in vivo. To be noted: Mus musculus, reduction of immobility time vs blank group, abdominal injection 10 mg/kg.
Where [6] appears, read: test 1 h after dosing, read-out: 1 h inhibition (%).
Where [7] appears, read: test 24 h after dosing, read-out: 24 h inhibition (%).

As a reminder, the Cmax is the peak of the concentration-time curve. Usually MRT stands for the average time that molecules of a dose stay in the body. Broadly, the clearance is a measure of how efficiently the substance is removed, as volume per time. Higher therefore signals a high capacity for elimination. By half-life is commonly meant how long it takes for the measured level to halve. High values mean slow decline, low ones rapid decline. What is called Tmax is the time from dosing to the highest level.

Like-named read-outs stand apart in the source and are kept apart here.

In the case of `CN[C@@]1(c2ccc(C(F)(F)F)cc2)CCC[C@](C)(O)C1=O.Cl` [Compound 73, (2S,6R)-2-hydroxy-2-methyl-6-methylamino-6-(4-(trifluoromethyl)phenyl)cyclohexan-1-one hydrochloride], the “Stability of solid state compound, 0 Days (%)” value in series [1] (0 days, liquid chromatography) is on record as 99.94%. Besides, the “Stability of solid state compound, 5 Days (%)” value in series [1] (5 days) was 99.90%. For the same molecule, in series [1] (10 days), the “Stability of solid state compound, 10 Days (%)” value was 99.88%. The “Stability of solid state compound, 30 Days (%)” value in series [1] (30 days) is recorded as 99.89%. Besides, the inhibition in vivo at 20 mg/kg in series [2] (setting [6]) came to 68.7 ± 0.6%. Also, the inhibition in vivo at 20 mg/kg in series [2] (setting [7]) stood at 39.4 ± 4.4%. In series [3] (brain), this molecule came in with an AUC0-t brain of 6172 ng·h/g and a Cmax brain of 5567 ng/g. Moreover, in series [3] (male, rat, brain and plasma, po, read-out: brain/plasma ratio), the Kp was found to be 3.4. Moreover, in series [3] (male, rat, po, plasma), the AUC0-t was 1820 ng·h/mL and the concentration peaked (Cmax) at 1600 ng/mL. Moreover, in series [4] (1 mg/kg i.v.), the AUC0-t is 941 ngh/mL and the “AUC0-∞” value was 970 ngh/mL. In addition, in series [4] (5 mg/kg P.O.), the AUC0-t was 2179 ngh/mL, the “AUC0-∞” value came out at 2224 ngh/mL and the F is recorded as 46.3%. In series [4] (male, plasma, iv, 1 mg/kg i.v.), this molecule gave an MRT of 1.84 h, a clearance of 17.7 mL/min/kg and a half-life of 96.6 min. Moreover, the Vd in series [4] (male, plasma, iv, 1 mg/kg i.v., read-out: Vss) is 1.93 L/kg. In series [4] (male, plasma, po, 5 mg/kg P.O.), the Cmax is 1020 ng/mL, the MRT worked out at 2.57 h, the time to peak (Tmax) is 25.2 min and the half-life was 140 min.
With `CN[C@]1(c2ccccc2Cl)CCCCC1=O` [S-ketamine], the figures for the inhibition in vivo at 10 mg/kg in series [5] (setting [6]) and in series [5] (setting [7]) were 20.7 ± 3.7% and 23.6 ± 1%, respectively.
